Laboratory results as given in patent US11628208B2, “System and method for microneedle delivery of microencapsulated vaccine and bioactive proteins” (priority 2015, dated 2023).

Columns and labels:
[1] = system: RAW 264.7 cells; assay: MTS cell cytotoxicity assay; assay type: cell-based, mouse; settings: 10 mg/mL, positive control, relative to DMEM-treated cells
Procedure: Particles were tested for their cytotoxic properties using MTS assay (Promega), which determines cell viability in culture. RAW 264.7 cells (mouse leukemic monocyte macrophage cell line) were grown in DMEM medium, supplemented with 10% fetal bovine serum and 1% antibiotic in a cell culture flask. The cell culture media was then removed and cells were treated with 2 mL trypsin-EDTA. Thus, cells were detached from the cell culture flask and suspended in 1 mL complete DMEM media. Cell count of the resulting suspension was determined by trypan blue dye exclusion method using Bio-Rad counter (TC10™ Automated cell counter, Bio-Rad, CA). Cell suspension equivalent to 10,000 cells was plated in a 96 well cell culture plate and complete DMEM media was added to attain a volume of 100 μL per well. Plate was incubated for 24 h and various concentrations (2, 1, 0.5, 0.25, 0.125, 0.0625 mg/mL) of 4T07 antigen loaded particles were added to wells (n=3 for each concentration) and again incubated for 24 h. Cells treated with DMEM media alone were used as a negative control and cells treated with benzalkonium chloride (10 mg/ml) were chosen as a positive control (n=3 each). […] The plate was incubated for 4 h at 37° C. in a humidified, 5% CO2 chamber and absorbance was recorded at 490 nm using a UV plate reader (BioTek instruments Inc., VT).

[2] = system: dendritic cells (DC 2.4); assay: Nitric oxide release from dendritic cells exposed to RSV F-VLP vaccine; assay type: cell-based
Procedure: For in vitro analysis of immunogenicity of the F-VLP, dendritic cells (DC 2.4) were cultured and exposed to varying concentrations of the vaccine. The optimal concentration was then used to screen four different adjuvants (Poly I:C, Alum, MPL and MF59). Evaluation of innate and adaptive immunity was done using the nitric oxide assay and expression of cell surface markers using the C6 flow cytometer.
a. Following exposure to an antigen, dendritic cells (DC 2.4) are known to release nitric oxide and express cell surface markers that signal CD4+ Helper T cells and/or CD8+ Cytotoxic T cells.

[3] = system: CD4+ and CD8+ T cell populations; assay: CD4/CD8 population analysis of splenocytes incubated with stimulated APCs; assay type: cell-based, Swiss Webster mice; settings: 5 days
Procedure: The spleens were collected from the same mice that were harvested APCs from the intraperitoneal cavity, and the single-cell suspensions of the spleens were introduced into the stimulated APCs with a ratio of 1:1 (splenocytes:APCs). After a five-day incubation at 37° C. and 5% CO2, the splenocytes were harvested from the supernatant, washed with Hank's balanced salt solution and labeled with anti-mouse CD4 PE and anti-mouse CD8a FITC. The cells were analyzed for CD4^+ and CD8^+ T cell populations using BD Accuri® C6 flow cytometer.

[4] = system: APCs; assay: Nitric oxide assay (Greiss) on harvested APCs; assay type: cell-based, Swiss Webster mice; settings: 2.5 μg adjuvant in MP + 2.5 μg M2p in MP, 20 hours
Procedure: 5 Sodium thioglycolate was injected into the intraperitoneal cavity of Swiss Webster (6-8 week old) with the amount of 40 mg per mouse to recruit the APCs (13)(14). After four days, these mice were euthanized and 5.0 mL of PBS was injected intraperitoneally into each mouse to harvest cells from the cavity. Collected cells were washed with PBS twice before adding the complete RPMI media. After these APCs adhered to the bottom of a T75 flask, the supernatant was removed and complete RPMI media was added in the presence of ConA ([…]).
The harvested APCs (5×10^4 cells/well) were seeded in Dulbecco's complete media in a 96 well plate. The soluble and particulate vaccines (with and without adjuvants) were introduced to the APCs with the same amount of antigen (2.5 μg) and adjuvant (2.5 μg). The induced APCs were incubated for 20 hours at 37° C. % CO2. Supernatants were collected and the amount of nitric oxide released in each group was analyzed using the Greiss chemical method (equal volumes of 1% sulphanilamide and 0.1% N-(1-naphthylethylenediamine)). The plate was read at a wavelength of 540 nm (15).

## CCCCCCCCCCCCC[N+](C)(C)Cc1ccccc1 [benzalkonium chloride]
[1]
  cell viability: 21%

## Poly I:C
[2]
  amount of nitric oxide released, vaccine with adjuvant compared to vaccine alone: much higher compared to vaccine alone

## monophospholyl lipid A [MPL]
[3]
  CD8+ T cell population compared to M2p MP treated group: elevated

B1: Flagellin: flagellin from Salmonella typhimurium, adjuvant in microparticles (protein, UniProt P06179 2-495, looked up)
Flagellin: AQVINTNSLSLLTQNNLNKSQSALGTAIERLSSGLRINSAKDDAAGQAIANRFTANIKGLTQASRNANDGISIAQTTEGALNEINNNLQRVRELAVQSANSTNSQSDLDSIQAEITQRLNEIDRVSGQTQFNGVKVLAQDNTLTIQVGANDGETIDIDLKQINSQTLGLDTLNVQQKYKVSDTAATVTGYADTTIALDNSTFKASATGLGGTDQKIDGDLKFDDTTGKYYAKVTVTGGTGKDGYYEVSVDKTNGEVTLAGGATSPLTGGLPATATEDVKNVQVANADLTEAKAALTAAGVTGTASVVKMSYTDNNGKTIDGGLAVKVGDDYYSATQNKDGSISINTTKYTADDGTSKTALNKLGGADGKTEVVSIGGKTYAASKAEGHNFKAQPDLAEAAATTTENPLQKIDAALAQVDTLRSDLGAVQNRFNSAITNLGNTVNNLTSARSRIEDSDYATEVSNMSRAQILQQAGTSVLAQANQVPQNVLSLLR
[4]
  nitric oxide level compared to M2p MP group: significantly higher
[3]
  CD4+ T cell population compared to M2p MP treated group: elevated CD4+ T cell population
